This is an account of results in ChEMBL document CHEMBL4270538, “Targeting prohibitin with small molecules to promote melanogenesis and apoptosis in melanoma cells” (Eur J Med Chem, 2018).

One may read the IC50 as the concentration that inhibits the measured activity by half.

Active and inactive are the calls of the source. No cut-off for these calls is given here.

In experiment [1] the target is Prohibitin-2 (Homo sapiens) (UniProt Q99623). Put plainly: Induction of PHB2-mediated melanogenesis in human HBL cells assessed as pigmentation at 10 uM after 10 days relative to control. The experiment is classed as cell-based.
The target is the same in experiment [2]. Kind of experiment: Induction of PHB2-mediated melanogenesis in human HBL cells assessed as pigmentation at 1 uM after 10 days relative to control. The experiment is classed as cell-based.
The target in experiment [3] is T1, Prohibitin 1 (Homo sapiens) (UniProt P35232).
T1 sequence (whole entry): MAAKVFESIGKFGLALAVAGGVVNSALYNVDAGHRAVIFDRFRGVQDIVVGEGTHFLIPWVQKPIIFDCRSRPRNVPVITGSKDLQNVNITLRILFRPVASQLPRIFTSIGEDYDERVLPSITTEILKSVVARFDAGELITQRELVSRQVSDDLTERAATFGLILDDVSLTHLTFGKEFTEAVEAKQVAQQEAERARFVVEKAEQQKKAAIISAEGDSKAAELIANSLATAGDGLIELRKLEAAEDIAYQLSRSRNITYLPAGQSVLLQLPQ
Kind of experiment: Binding affinity to PHB1 in human HBL cells using affigel conjugated compound after overnight incubation by pull down assay. The experiment is classed as cell-based.

For experiment [4], the target named is Prohibitin-2 (Homo sapiens) (UniProt Q99623). Kind of experiment: Binding affinity to PHB2 in human HL60 cells assessed as LC3-2 accumulation at 0.1 to 10 uM after 24 hrs by Western blot analysis. The experiment is classed as cell-based. Background: In western blotting, separated proteins are transferred to a membrane and probed.
Experiment [5] concerns the target T1, Prohibitin 1 (Homo sapiens). Kind of experiment: Downregulation of PHB1 in human HL60 cells at 0.1 to 10 uM after 24 hrs by Western blot analysis. The experiment is classed as cell-based.
Experiment [6] deals with Prohibitin-2 (Homo sapiens) (UniProt Q99623). Kind of experiment: Binding affinity to PHB2 in human HBL cells assessed as upregulation of ERK phosphorylation at 0.1 to 10 uM after 24 hrs by Western blot analysis. The experiment is classed as cell-based.
The target is the same in experiment [7]. Kind of experiment: Binding affinity to PHB2 in human HBL cells assessed as upregulation of MITF protein expression at 0.1 to 10 uM after 24 to 48 hrs by Western blot analysis. The experiment is classed as cell-based.
Experiment [8] shares this target. Put plainly: Binding affinity to PHB2 in human HBL cells assessed as LC3-2 accumulation after 24 to 48 hrs by Western blot analysis. The experiment is classed as cell-based.
Experiment [9] addresses T1, Prohibitin 1 (Homo sapiens). Kind of experiment: Downregulation of PHB1 in human HBL cells at 0.1 to 10 uM after 24 to 48 hrs by Western blot analysis. The experiment is classed as cell-based.
Experiment [10] deals with Prohibitin-2 (Homo sapiens) (UniProt Q99623). Kind of experiment: Binding affinity to PHB2 in human HBL cells assessed as upregulation of tyrosinase protein expression at 0.1 to 10 uM after 24 to 48 hrs by Western blot analysis. The experiment is classed as cell-based.
Experiment [11] shares this target. Kind of experiment: Binding affinity to PHB2 in human HBL cells assessed as feedback mechanism based inhibition of ERK phosphorylation at 0.1 to 10 uM after 48 hrs by Western blot analysis. The experiment is classed as cell-based.
Experiment [12] shares this target. Put plainly: Downregulation of PHB2 in human HBL cells at 0.1 to 10 uM after 24 to 48 hrs by Western blot analysis. The experiment is classed as cell-based.
Experiment [13] has the same target. Kind of experiment: Downregulation of PHB2 in human HL60 cells at 0.1 to 10 uM after 24 hrs by Western blot analysis. The experiment is classed as cell-based.
Experiment [14] shares this target. Put plainly: Binding affinity to PHB2 in human HL60 cells assessed as upregulation of ERK phosphorylation at 0.1 uM after 24 hrs by Western blot analysis. The experiment is classed as cell-based.
The target of experiment [15] is RAC-alpha serine/threonine-protein kinase (Homo sapiens) (UniProt P31749). Put plainly: Inhibition of Akt phosphorylation in human HL60 cells after 24 to 48 hrs by Western blot analysis. The experiment is classed as cell-based.
The subject of experiment [16] is KB. Kind of experiment: Inhibition of cell proliferation in human KB cells after 72 hrs by MTS assay. The experiment is classed as functional, cell-based. On the technique in general: Tetrazolium dyes change colour on reduction, which living cells bring about.
Experiment [17] has as its target RAC-alpha serine/threonine-protein kinase (Homo sapiens) (UniProt P31749). Kind of experiment: Inhibition of Akt phosphorylation in human HBL cells at 0.1 to 10 uM after 24 to 48 hrs by Western blot analysis. The experiment is classed as cell-based.
Experiment [18] relates to HL-60. Kind of experiment: Inhibition of cell proliferation in human HL60 cells after 72 hrs by MTS assay. The experiment is classed as functional, cell-based. Conditions: HL-60, 72 h.
Experiment [19] deals with Prohibitin-2 (Homo sapiens) (UniProt Q99623). Put plainly: Induction of PHB2-mediated melanogenesis in human MM162 cells assessed as pigmentation at 1 to 10 uM after 10 days relative to control. The experiment is classed as cell-based.
Experiment [20] has the same target. Put plainly: Induction of PHB2-mediated melanogenesis in human MM043 cells assessed as pigmentation at 1 to 10 uM after 10 days relative to control. The experiment is classed as cell-based.

Chain of Prohibitin-2 (Homo sapiens) (Q99623 whole entry): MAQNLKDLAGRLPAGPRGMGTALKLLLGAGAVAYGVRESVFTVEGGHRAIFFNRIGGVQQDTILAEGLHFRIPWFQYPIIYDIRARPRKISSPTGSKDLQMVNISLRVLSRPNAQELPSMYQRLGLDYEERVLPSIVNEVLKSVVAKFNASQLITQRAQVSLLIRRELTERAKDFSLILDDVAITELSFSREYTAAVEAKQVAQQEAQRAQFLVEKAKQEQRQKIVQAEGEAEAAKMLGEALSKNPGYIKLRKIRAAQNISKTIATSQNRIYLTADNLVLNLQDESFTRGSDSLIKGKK
Chain of RAC-alpha serine/threonine-protein kinase (Homo sapiens) (P31749 whole entry): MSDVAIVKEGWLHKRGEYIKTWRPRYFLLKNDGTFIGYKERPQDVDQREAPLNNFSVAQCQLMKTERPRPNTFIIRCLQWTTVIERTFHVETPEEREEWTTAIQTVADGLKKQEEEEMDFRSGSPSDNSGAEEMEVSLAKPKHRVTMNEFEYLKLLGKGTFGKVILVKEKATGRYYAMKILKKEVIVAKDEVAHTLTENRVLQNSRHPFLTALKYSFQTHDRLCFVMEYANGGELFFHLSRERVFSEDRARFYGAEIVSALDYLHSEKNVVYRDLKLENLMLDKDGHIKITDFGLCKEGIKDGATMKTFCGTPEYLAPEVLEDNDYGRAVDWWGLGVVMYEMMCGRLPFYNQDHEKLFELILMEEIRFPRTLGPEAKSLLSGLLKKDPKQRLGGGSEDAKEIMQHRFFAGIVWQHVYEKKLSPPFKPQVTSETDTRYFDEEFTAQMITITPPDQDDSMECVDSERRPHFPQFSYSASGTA

With `Fc1c(F)c(F)c(Oc2nc(N3CCC(N4CCCCC4)CC3)nc(N3CCCc4ccccc4C3)n2)c(F)c1F`, the results for the fold change (FC) in [1] and in experiment [2] were 1.79 and 0.87, respectively. Moreover, in [3], the outcome was Active.

For `CN(C)CCNc1nc(Oc2c(F)c(F)c(F)c(F)c2F)nc(N2CCCc3ccccc3C2)n1`, the result in [4], in experiment [5], in [6], in [7], in [9] and in experiment [10] was Active. Besides, the result in experiment [12], in [13], in experiment [14], in [19] and in [20] was Active. Also, in [8], the Activity result is “Dose-dependent effect”. In addition, the fold change (FC) was found to be 2.23 in [1] and 0.89 in experiment [2]. The inhibition entry in experiment [11] and in experiment [17] was “Active” throughout. Also, in experiment [15], the inhibition entry is “Dose-dependent effect”. Moreover, the IC50 in experiment [16] is 63 µM; in experiment [18], 95 µM.
